Assay results: article PMC5841289, “Natural polyphenols as sirtuin 6 modulators” (Scientific Reports, 2018)
“Also recorded” adds a separate entry of the source.

Key:
GST-tagged SIRT6 [1] = target: T1, GST-tagged SIRT6 (Homo sapiens, UniProt Q8N6T7); assay: HPLC-based SIRT6 deacetylation assay with H3K9Ac peptide;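 as to all read-outs here: recombinant SIRT6 incubated 30 min at 37 °C with 500 µM NAD+ and H3K9Ac peptide, deacetylated H3K9 quantified by reversed-phase HPLC-MRM peak area versus DMSO control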; assay type: biochemical; settings: for inhibition at 10 µM / Inhibition % 10 µM: 10 µM compound; for inhibition at 10 µM / Activation 100 µM / inhibition at 100 µM / Inhibition % 10 µM / Inhibition % 100 µM: mean ± SD, n=3; for Activation 100 µM / inhibition at 100 µM / Inhibition % 100 µM: 100 µM compound; for Activation 100 µM: 40 µM H3K9Ac, fold per Fig. 2C legend
T1 construct: made in house; host or cells: E. coli BL21(DE3)-pRARE

GST-tagged SIRT6 [2] = target: T1, GST-tagged SIRT6; set-up: method as in PMID 26607666; settings: cited from earlier work
GST-SIRT6 = target: T2, GST-SIRT6 (Homo sapiens, UniProt Q8N6T7); assay: In vitro SIRT6 deacetylation of core histones, western blot of H3K9Ac; assay type: biochemical; settings: 100 µM
T2 construct: made in house; host or cells: E. coli BL21(DE3)-pRARE
Description: Western blot analysis was carried out as previously described, with slight modifications. […] The reaction was stopped with Laemmli (sample buffer) and separated by SDS-PAGE using 10–20% gradient gels and transferred onto polyvinylidene difluoride (PVDF) membranes. H3K9 acetylation was detected with rabbit anti-acetyl H3K9 antibody followed by anti-rabbit HRP-conjugated secondary antibody. Membranes were stripped and re-probed with rabbit anti-histone H3 antibody. Chemiluminescent signal detection and image acquisition were carried out using ECL prime western blotting detection reagents.
3 μg/well of a purified recombinant GST‐SIRT6 protein, 1.25 μg purified whole chicken core histones with 500 μM NAD+ in 25 mM Tris‐HCl, pH 8.0. Analysis were repeated three times and one representative cropped blot is shown (A). Uncropped blots probed with H3K9Ac (B), H3 (C). […]

[3] = system: SIRT6 protein expression in Caco-2 cells; assay: Immunoblotting of SIRT6 protein expression in Caco-2 cells; assay type: cell-based, human; settings: 24 h; for SIRT6 expression, in words: Caco-2 cells
Description: (§1) After the treatment, conditions of the cells were evaluated under a light microscope (Fig. 3A). […] Full-length blots are presented in Supplementary Fig. S4.
(§2) (B) Immunoblotting analysis of SIRT6 protein. SIRT6 protein levels (MW: 39 kDa) were normalized relative to α-tubulin (MW: 50 kDa) and quantification is represented as fold change respect to control. Values are expressed as mean ± SEM of four independent experiment (*p values < 0.05; one way-ANOVA). SIRT6 expression were determined by immunoblotting (B).
(§3) Caco-2 cells (passage 30–40) were cultured in DMEM with 10% FBS, 1% nonessential amino acids, 2 mM L-glutamine, 100 units/ml of penicillin, and 100 µg/ml of streptomycin at +37 °C. Cells were cultured 14 days before the treatments. For the immunoblotting, cells were seeded on 24-well plates (1 × 10^5 cells/well).
(§4) After treatment, medium was discarded and cells were washed twice with ice-cold PBS. RIPA buffer was added to the cells and incubated for 30 min. Cell suspensions were collected and centrifuged (13,000 rpm, 20 min +4 °C). Supernatant containing the proteins were aliquoted and stored at −80 °C. Sample protein concentrations were measured with Bradford Assay (Bio-Rad DC^TM Protein Assay).
Immunoblotting was performed according to standard protocols from four independent experiments. Briefly, protein samples (18 µg/sample) were separated by SDS-PAGE using 10–20% gradient gels and transferred onto PVDF membranes. Membranes were blocked in 3% non-fat dry milk and further incubated with primary rabbit anti- FoxO3α (1:2000), anti-GLUT1 (1:1000), anti-H3, anti-SIRT6 (1:2000), anti-Twist (1:2000) anti-α-tubulin (1:8000) antibodies overnight at +4 °C. HRP-conjugated secondary antibodies (goat anti-rabbit, goat anti-mouse) were incubated for 1 hour at room temperature and proteins were detected using ELC prime western blotting system. Densitometric analysis of protein bands was carried out using ImageJ 1.32 software and the data were normalized by α-tubulin (loading control).

[4] = system: FoxO3α protein expression in Caco-2 cells; assay: Immunoblotting of FoxO3α protein expression in Caco-2 cells; assay type: cell-based, human; settings: Caco-2, 24 h, 50 and 100 µM
Description: as §1
(§5) FoxO3α, Twist1 and GLUT1 expression were quantified and normalised with α-tubulin or H3. Data represent the mean ± SEM of three independent experiments,*p < 0.05, **p < 0.01 and ***p < 0.001 between the indicated groups.
as §3, §4
(§6) Immunoblotting was performed according to standard protocols from four independent experiments. […] HRP-conjugated secondary antibodies (goat anti-rabbit, goat anti-mouse) were incubated for 1 hour at room temperature and proteins were detected using ELC prime western blotting system. […]

[5] = system: Twist1 protein expression in Caco-2 cells; assay: Immunoblotting of Twist1 protein expression in Caco-2 cells; assay type: cell-based, human; settings: Caco-2, 24 h, 100 µM
Description: as §1, §5, §3, §4, §6

[6] = system: GLUT1 protein expression in Caco-2 cells; assay: Immunoblotting of GLUT1 protein expression in Caco-2 cells; assay type: cell-based, human; settings: Caco-2, 24 h, 100 µM
Description: as §1, §5, §3, §4, §6

Caco-2 cells = assay: Light microscopy of Caco-2 cells after treatment; assay type: cell-based, human; settings: 200 µM
Description: as §1, §2, §3

T1 sequence (Q8N6T7 whole entry): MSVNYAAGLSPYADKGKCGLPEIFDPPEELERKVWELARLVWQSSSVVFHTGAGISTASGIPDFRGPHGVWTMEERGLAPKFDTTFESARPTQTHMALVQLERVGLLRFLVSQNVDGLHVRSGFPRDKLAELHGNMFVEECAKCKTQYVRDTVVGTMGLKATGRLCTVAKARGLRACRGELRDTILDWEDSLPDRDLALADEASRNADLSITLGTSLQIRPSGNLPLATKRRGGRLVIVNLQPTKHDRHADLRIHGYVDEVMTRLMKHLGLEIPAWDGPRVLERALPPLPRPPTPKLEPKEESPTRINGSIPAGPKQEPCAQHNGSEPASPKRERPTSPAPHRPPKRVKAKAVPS
T2 sequence (Q8N6T7 whole entry): as above

| SMILES | inhibition at 10 µM (GST-tagged SIRT6 [1]) | Activation 100 µM (GST-tagged SIRT6 [1]) | inhibition at 100 µM (GST-tagged SIRT6 [1]) | SIRT6 inhibition, in words (GST-tagged SIRT6 [1]) | also measured |
| --- | --- | --- | --- | --- | --- |
| Oc1cc(O)c2c(c1)O[C@H](c1ccc(O)c(O)c1)[C@@H](O)C2 [Compound 1, (+)-Catechin] | 17 ± 1.6% | 0.8 ± 0.02 fold | 26% | – | – |
| Oc1cc(O)c2c(c1)O[C@@H](c1ccc(O)c(O)c1)[C@H](O)C2 [Compound 2, (−)-Catechin] | 25 ± 0.8% | 0.4 ± 0.04 fold | 54% | – | – |
| Oc1cc(O)c2c(c1)O[C@@H](c1cc(O)c(O)c(O)c1)[C@H](O)C2 [Compound 3, (−)-Gallocatechin] | 17 ± 0.8% | 0.2 ± 0.01 fold | 23 ± 1% | weak inhibitor | – |
| O=C(O[C@@H]1Cc2c(O)cc(O)cc2O[C@H]1c1ccc(O)c(O)c1)c1cc(O)c(O)c(O)c1 [Compound 4, (−)-Catechin gallate] | 62 ± 0.7% | 0.1 ± 0.03 fold | – | – | – |
| O=C(O[C@@H]1Cc2c(O)cc(O)cc2O[C@H]1c1cc(O)c(O)c(O)c1)c1cc(O)c(O)c(O)c1 [Compound 5, (−)-Gallocatechin gallate] | 79 ± 0.5% | 0.01 ± 0.01 fold | – | – | – |
| Oc1cc(O)c2c(c1)O[C@H](c1ccc(O)c(O)c1)[C@H](O)C2 [Compound 6, (−)-Epicatechin] | – | – | 10 ± 0.1% | – | – |
| O=C(O[C@@H]1Cc2c(O)cc(O)cc2O[C@@H]1c1ccc(O)c(O)c1)c1cc(O)c(O)c(O)c1 [Compound 8, (−)-Epicatechin gallate] | 15 ± 0.9% | 0.1 ± 0.01 fold | 60 ± 3.6% | – | – |
| O=C(O[C@@H]1Cc2c(O)cc(O)cc2O[C@@H]1c1cc(O)c(O)c(O)c1)c1cc(O)c(O)c(O)c1 [Compound 9, (−)-Epigallocatechin gallate] | 10 ± 1.4% | 0.8 ± 0.04 fold | 42 ± 1.9% | moderate inhibition | – |
| O=C1C[C@@H](c2ccc(O)cc2)Oc2cc(O)cc(O)c21 [Compound 10, Naringenin] | 8.3 ± 1.1% | 1.1 ± 0.05 fold | 23 ± 1.5% | did not improve the inhibitory activity towards SIRT6 compared to compound 1 | – |
| O=C1C[C@@H](c2ccc(O)c(O)c2)Oc2cc(O)cc(O)c21 [Compound 11, Eriodictoyl] | – | 1.1 fold | – | did not improve the inhibitory activity towards SIRT6 compared to compound 1 | Inhibition % 10 µM (GST-tagged SIRT6 [1]): 19 ± 2.2%; Inhibition % 100 µM (GST-tagged SIRT6 [1]): 27 ± 1.5% |
| O=c1cc(-c2ccc(O)cc2)oc2cc(O)cc(O)c12 [Compound 12, Apigenin] | – | 0.9 ± 0.01 fold | 1 ± 0.6% | – | SIRT6 activation, in words (GST-tagged SIRT6 [1]): inactive |
| O=c1cc(-c2ccc(O)c(O)c2)oc2cc(O)cc(O)c12 [Compound 13, Luteolin] | 24 ± 1.8% | 1.2 ± 0.04 fold | 29 ± 0.3% | weak inhibitor | Modulation of SIRT6 deacetylation activity, in words (GST-tagged SIRT6 [2]): increase SIRT6 deacetylation activity at high concentrations, while also inhibiting deacetylation activity at low concentrations |
| O=c1c(O)c(-c2ccc(O)cc2)oc2cc(O)cc(O)c12 [Compound 14, Kaempferol] | 40 ± 0.8% | 2.2 ± 0.1 fold | 24 ± 1.7% | inhibitors as well as activators depending on the concentration | Maximal activation (fold) (GST-tagged SIRT6 [1]; at saturating concentrations of compound): 3.0 fold |
| O=c1c(O)c(-c2ccc(O)c(O)c2)oc2cc(O)cc(O)c12 [Compound 15, Quercetin] | 27 ± 0.4% | 1.5 ± 0.1 fold | 40 ± 3% | inhibitors as well as activators depending on the concentration | Modulation of SIRT6 deacetylation activity, in words (GST-tagged SIRT6 [2]): increase SIRT6 deacetylation activity at high concentrations, while also inhibiting deacetylation activity at low concentrations |
| O=c1c(O)c(-c2cc(O)c(O)c(O)c2)oc2cc(O)cc(O)c12 [Compound 16, Myricetin] | – | – | 0% | – | – |
| Oc1cc(O)c2cc(O)c(-c3ccc(O)c(O)c3)[o+]c2c1 [Compound 17, Cyanidin] | – | 2.6 ± 0.1 fold | 0% | – | SIRT6 activation, in words (GST-tagged SIRT6 [1]): increase in deacetylase activity; Increase of deacetylation activity (H3K9Ac on core histones) (GST-SIRT6): ~2.5 fold; SIRT6 expression up-regulation ([3]; Caco-2, 50–100 µM, relative to control): 3.5 fold; SIRT6 expression, in words [3]: effective in a dose-dependent manner; SIRT6 expression, in words ([3]; listed as Cyanidin): significantly increased SIRT6 expression; FoxO3α protein expression, in words [4]: enhanced the protein expression of FOXO3 significantly; Twist1 expression, in words [5]: downregulated; GLUT1 expression, in words [6]: downregulated; Precipitation in cell culture medium (Caco-2 cells): precipitated out of solution |
| Oc1cc(O)c2cc(O)c(-c3cc(O)c(O)c(O)c3)[o+]c2c1 [Compound 18, Delphinidin] | – | 2.2 ± 0.1 fold | 0% | – | SIRT6 activation, in words (GST-tagged SIRT6 [1]): increase in deacetylase activity; also recorded: weaker activity against SIRT6 than compound 17; Increase of deacetylation activity (H3K9Ac on core histones) (GST-SIRT6): ~2.5 fold |
| O=c1c(-c2ccc(O)cc2)coc2cc(O)cc(O)c12 [Compound 19, Genistein] | 1.8 ± 0.3% | 0.7 ± 0.2 fold | 9.6 ± 1.4% | weak SIRT6 inhibitors | – |
| COc1ccc(-c2coc3cc(O)cc(O)c3c2=O)cc1 [Compound 20, Biochanin A] | – | 1.3 ± 0.02 fold | – | weak SIRT6 inhibitors | SIRT6 activation, in words (GST-tagged SIRT6 [1]): able to activate deacetylation of SIRT6; Inhibition % 10 µM (GST-tagged SIRT6 [1]): 13 ± 0.5%; Inhibition % 100 µM (GST-tagged SIRT6 [1]): 24 ± 0.9% |
| NC(=O)c1cccnc1 [Compound 21, Nicotinamide, reference compound] | – | – | – | – | inhibition at 1000 µM (GST-tagged SIRT6 [1]): 58 ± 1.3% |
| O=C(O)c1cc(O)c(O)c(O)c1 [Compound 22, Gallic Acid] | – | 1.4 ± 0.04 fold | 14 ± 1.2% | – | SIRT6 activation, in words (GST-tagged SIRT6 [1]): increased slightly SIRT6 activation |
| COc1cc(CCC(=O)O)ccc1O [Compound 23, 3-(4-Hydroxy-3-methoxyphenyl)propionic acid] | – | 1.8 ± 0.05 fold | -12 ± 1.1% | – | SIRT6 activation, in words (GST-tagged SIRT6 [1]): increased slightly SIRT6 activation |
| O=C(O)C=Cc1ccc(O)cc1 [Compound 24, p-Coumaric acid] | – | 0.6 ± 0.1 fold | 8.5 ± 1.2% | inactive | – |
| O=C(O)/C=C/c1ccc(O)c(O)c1 [Compound 25, Caffeic Acid] | – | 1.0 ± 0.01 fold | -5.9 ± 0.2% | inactive | – |
| COc1cc(/C=C/C(=O)O)ccc1O [Compound 26, trans-Ferulic acid] | – | 0.9 ± 0.6 fold | – | inactive | Inhibition % 100 µM (GST-tagged SIRT6 [1]): -8.6 ± 0.3% |
| COc1cc(/C=C/C(=O)O)cc(OC)c1O [Compound 27, Sinapic Acid] | – | 0.6 ± 0.2 fold | – | inactive | Inhibition % 100 µM (GST-tagged SIRT6 [1]): 8.0 ± 0.9% |
